Measured values reported in patent publication US20250154686A1, “COMPOUND LIBRARY” (CHUGAI SEIYAKU KABUSHIKI KAISHA, priority 2021, published 2025).

Molecular target: T1, Bcl-2 protein (Recombinant Human Bcl-2 Protein) (Homo sapiens, UniProt P10415)
T1 construct: purchased Novus Biologicals NBP2-34889
Assay: AS-MS evaluation of binding of the Example 4 mixture library (1200 compounds/well) to Bcl-2, ASMS ratio (%)
Details: for ASMS ratio (%) n = 1: replicate n = 1; for ASMS ratio (%) n = 2: replicate n = 2
Procedure: DMSO solutions (prepared into approximately 0.58 mM based on calculation from the average molecular weight of each mixture) of 12 types of mixtures that could each contain 100 compounds, i.e., mixAI-B4J-01, mixAI-B1M-01, mixAI-B1K-01, mixAI-BIO-01, mixAI-B1A-01, mixAI-B3A-01, mixAI-B21-01, mixAI-B2L-01, mixAI-B2N-01, mixAI-B2A-01, mixAI-B2Q-01, and mixAI-B2R-01, shown in Table AI-03-B4J-01, Table AI-03-B1M-01, Table AI-03-B1K-01, Table AI-03-B10-01, Table AI-03-B1A-01, Table AI-03-B3A-01, Table AI-03-B21-01, Table AI-03-B2L-01, Table AI-03-B2N-01, Table AI-03-B2A-01, Table AI-03-B2Q-01, and Table AI-03-B2R-01 described in Example 4, were respectively dispensed to a total of 12 wells of MICROPLATE, 96-well, PP, V-BOTTOM (Greiner Bio-One International GmbH, 651201). 70 nL each from the 12 wells was collected into any one well using LABCYTE ECHO® 555 acoustic dispensing system (Beckman Coulter, Inc.) to prepare a sample solution in a mixed state of 1200 compounds (the presence of 1152 compounds was already identified when the mixtures were prepared in Example 4). Further, Bcl-2 protein (Novus Biologicals, NBP2-34889, Recombinant Human Bcl-2 Protein, Lot E60145051) (19.2 μL) prepared at 20.9 μM in advance using a Tris-HCl buffer (25 mM Tris-HCl, pH 7.4, 150 mM NaCl, 0.025% Tween-20, and 1 mM DTT) was added to the well containing the dispensed 1200 compounds (the presence of 1152 compounds was already identified when the mixtures were prepared in Example 4) (final compound concentration: 20 nM, final Bcl-2 concentration: 20 μM), and the plate was incubated at 23° C. for 1 hour in the dark. Subsequently, 200 μL of an assay buffer (25 mM Tris-HCl, pH 7.4, 150 mM NaCl, 0.025% Tween-20, and 1 mM DTT) was centrifuged three times at 2000×G at 4° C. for 2 minutes using 96-well MacroSpin column, P-2 Material (Harvard Bioscience, Inc., 74-5655) that had been allowed to swell to condition the 96-well MacroSpin column. Subsequently, 20 μL of the sample thus incubated was added to the 96-well MacroSpin column, P-2 Material after the completion of conditioning, and SEC treatment was performed by centrifugation at 2000×G for 2 minutes. 32 μL of a 1:1 mixed solution of acetonitrile and methanol (LC/MS grade, FUJIFILM Wako Pure Chemical Corp.) was added to a flow-through liquid from SEC, and the mixture was centrifuged at 1800×G at 4° C. for 5 minutes. The supernatant was used as analysis sample ASMS (A). By a similar operation, a sample prepared at 1200 compounds/well and supplemented with only a Tris-HCl buffer containing no Bcl-2 protein was incubated under the same conditions as above, and the same organic solvent as above was added thereto without 96-well MacroSpin column treatment. A supernatant obtained by a centrifugation operation was used as STD (B). Next, by a similar operation, a sample prepared at 1200 compounds/well and supplemented with only a Tris-HCl buffer containing no Bcl-2 protein was incubated under the same conditions as above and treated with 96-well MacroSpin column in the same manner as above, and the same organic solvent as above was added thereto. A supernatant obtained by a centrifugation operation was used as BK (C). These samples were measured by reverse-phase LC/MS.
Then, the samples A, B and C were analyzed for the 1200 compounds using TraceFinder 5.1 (Thermo Fisher Scientific Inc.) and CHANCE Software (in-house), and an ASMS ratio (%) was calculated according to the following expression.
Although m/z of the MS peaks was confirmed down to four decimal places, 0 at the decimal level may be omitted in the description in Table AJ-01. For example, “587.0000” is also referred to as “587”, “587.1000” is also referred to as “587.1”, “587.1200” is also referred to as “587.12”, and “587.1230” is also referred to as “587.123”.

[1] = AS-MS, mixture of 1200 compounds/well, Bcl-2 protein
[2] = mixture library, value belongs to the MS peak assigned to the compound

T1 sequence (P10415 whole entry): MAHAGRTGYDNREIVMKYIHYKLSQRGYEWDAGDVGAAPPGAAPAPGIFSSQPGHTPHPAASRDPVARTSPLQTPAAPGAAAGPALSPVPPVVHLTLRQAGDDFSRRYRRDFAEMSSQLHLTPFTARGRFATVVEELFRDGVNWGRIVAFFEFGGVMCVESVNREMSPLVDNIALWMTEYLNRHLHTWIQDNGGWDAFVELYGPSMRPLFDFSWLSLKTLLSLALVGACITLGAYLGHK

SMILES | ASMS ratio (%) n = 1 [1] | ASMS ratio (%) n = 2 [1] | ASMS ratio (%) n = 1 [2] | ASMS ratio (%) n = 2 [2]
CCCNC(=O)c1ccc(N2CCN(C(=O)c3ccc(-c4cncc(OCC)c4)c(F)c3)CC2)cc1 [Compound B1M028-01] | 0.0% | 0.0% |  | 
CCCNC(=O)c1ccc(N2CCN(Cc3cc(-c4cncc(OCC)c4)cs3)CC2)cc1 [Compound B1M068-01] | 1.1% | 0.0% |  | 
CCCNC(=O)c1ccc(N2CCN(Cc3ccc(-c4cccc(OCC)c4)c(C)c3)CC2)nn1 [Compound B1M073-01] | 0.4% | −0.5% |  | 
CCCNC(=O)c1ccc(N2CCN(Cc3ccc(-c4cncc(OCC)c4)c(C)c3)CC2)nn1 [Compound B1M074-01] | −1.6% | 0.9% |  | 
CCCNC(=O)c1ccc(N2CCN(Cc3ccc(-c4cccc(OCC)c4)c(F)c3)CC2)nn1 [Compound B1M077-01] | −0.7% | 3.1% |  | 
CCCNC(=O)c1ccc(N2CCN(Cc3ccc(-c4cncc(OCC)c4)c(F)c3)CC2)nn1 [Compound B1M078-01] | 0.0% | 0.0% |  | 
CCCNC(=O)c1ccc(N2CCN(Cc3cc(-c4cccc(OCC)c4)cc(C(F)(F)F)c3)CC2)nn1 [Compound B1M087-01] | 3.8% | 3.2% |  | 
CCCNC(=O)c1ccc(N2CCN(Cc3cc(-c4cncc(OCC)c4)cc(C(F)(F)F)c3)CC2)nn1 [Compound B1M088-01] | 0.0% | 0.0% |  | 
CCCNC(=O)c1ccc(N2CCN(Cc3cc(-c4cccc(OCC)c4)cs3)CC2)nn1 [Compound B1M093-01] | 0.0% | 0.0% |  | 
CCCNC(=O)c1ccc(N2CCN(Cc3cc(-c4cncc(OCC)c4)cs3)CC2)nn1 [Compound B1M094-01] | −1.5% | −2.1% |  | 
CCCNC(=O)c1ccc(N2CCN(C(C)c3ccc(-c4cncc(OCC)c4)cc3)CC2)cc1 (stereo not drawn) [Compound B1M098-01] | 0.9% | 0.3% |  | 
CCOc1cccc(-c2ccc(CN3CCN(c4ccc(C(=O)Nc5ccc(OC)cc5)nn4)CC3)c3ccccc23)c1 [Compound B1O091-01, 6-[4-[[4-(3-Ethoxyphenyl)naphthalen-1-yl]methyl]piperazin-1-yl]-N-(4-methoxyphenyl)pyridazine-3-carboxamide] |  | −2.2% |  | 
CCOc1cccc(-c2cc(CN3CCN(c4ccc(C(=O)NS(=O)(=O)CC56CC7CC(CC(C7)C5)C6)nn4)CC3)cc(OC(F)(F)F)c2)c1 [Compound B2A089-01] |  |  | 10.5% | 0.5%
CCOc1cncc(C#Cc2cc(C(=O)N3CCN(c4ccc(C(=O)NS(C)(=O)=O)cc4)CC3)cc(C(F)(F)F)c2)c1 [Compound B2I042-01, 4-[4-[3-[2-(5-Ethoxypyridin-3-yl)ethynyl]-5-(trifluoromethyl)benzoyl]piperazin-1-yl]-N-methylsulfonylbenzamide] |  |  | 0.0% | 0.0%
CCOc1cncc(-c2cnn(-c3cc(C(=O)N4CCN(c5ccc(C(=O)NS(C)(=O)=O)cc5)CC4)cc(C(F)(F)F)c3)c2)c1 [Compound B2I044-01, 4-[4-[3-[4-(5-Ethoxypyridin-3-yl)pyrazol-1-yl]-5-(trifluoromethyl)benzoyl]piperazin-1-yl]-N-methylsulfonylbenzamide] |  |  | 0.0% | 0.0%

Other lines, results leading:

ASMS ratio (%) n = 1 [1] | ASMS ratio (%) n = 2 [1] | ASMS ratio (%) n = 1 [2] | ASMS ratio (%) n = 2 [2] | SMILES
0.2% | −6.4% |  |  | CCCNC(=O)c1ccc(N2CCN(Cc3ccc(-c4cccc(OCC)c4)c4ccccc34)CC2)cc1 [Compound B1M065-01]
−1.6% | −87.4% |  |  | CCCNC(=O)c1ccc(N2CCN(Cc3cc(-c4cccc(OCC)c4)cs3)CC2)cc1 [Compound B1M067-01]
1.1% | 0.3% |  |  | CCCNC(=O)c1ccc(N2CCN(C(C)c3ccc(-c4cccc(OCC)c4)cc3)CC2)cc1 (stereo not drawn) [Compound B1M097-01]
 |  | 0.0% | 0.0% | CCOc1cccc(-c2cc(C(=O)N3CCN(c4ccc(C(=O)NS(C)(=O)=O)cc4)CC3)cc(C(F)(F)F)c2)c1 [Compound B2I039-01, 4-[4-[3-(3-Ethoxyphenyl)-5-(trifluoromethyl)benzoyl]piperazin-1-yl]-N-methylsulfonylbenzamide]
 |  | 0.0% | −2.7% | CCOc1cncc(-c2cc(C(=O)N3CCN(c4ccc(C(=O)NS(C)(=O)=O)cc4)CC3)cc(C(F)(F)F)c2)c1 [Compound B2I040-01, 4-[4-[3-(5-Ethoxypyridin-3-yl)-5-(trifluoromethyl)benzoyl]piperazin-1-yl]-N-methylsulfonylbenzamide]
 |  | 0.0% | 0.0% | CCOc1cccc(C#Cc2cc(C(=O)N3CCN(c4ccc(C(=O)NS(C)(=O)=O)cc4)CC3)cc(C(F)(F)F)c2)c1 [Compound B2I041-01, 4-[4-[3-[2-(3-Ethoxyphenyl)ethynyl]-5-(trifluoromethyl)benzoyl]piperazin-1-yl]-N-methylsulfonylbenzamide]
 |  | 0.0% | 0.0% | CCOc1cccc(-c2cnn(-c3cc(C(=O)N4CCN(c5ccc(C(=O)NS(C)(=O)=O)cc5)CC4)cc(C(F)(F)F)c3)c2)c1 [Compound B2I043-01, 4-[4-[3-[4-(3-Ethoxyphenyl)pyrazol-1-yl]-5-(trifluoromethyl)benzoyl]piperazin-1-yl]-N-methylsulfonylbenzamide]
 |  | −0.3% | 0.2% | CCOc1cccc(-c2ccccc2CN2CCN(c3ccc(C(=O)NS(C)(=O)=O)cc3)CC2)c1 [Compound B2I045-01, 4-[4-[[2-(3-Ethoxyphenyl)phenyl]methyl]piperazin-1-yl]-N-methylsulfonylbenzamide]
 |  | −0.6% | 1.5% | CCOc1cncc(-c2ccccc2CN2CCN(c3ccc(C(=O)NS(C)(=O)=O)cc3)CC2)c1 [Compound B2I046-01, 4-[4-[[2-(5-Ethoxypyridin-3-yl)phenyl]methyl]piperazin-1-yl]-N-methylsulfonylbenzamide]
 |  | 0.8% | 1.4% | CCOc1cccc(-c2ccc(CN3CCN(c4ccc(C(=O)NS(C)(=O)=O)cc4)CC3)cc2C)c1 [Compound B2I047-01, 4-[4-[[4-(3-Ethoxyphenyl)-3-methylphenyl]methyl]piperazin-1-yl]-N-methylsulfonylbenzamide]
 |  | 0.0% | 0.0% | CCOc1cncc(-c2ccc(CN3CCN(c4ccc(C(=O)NS(C)(=O)=O)cc4)CC3)cc2C)c1 [Compound B2I048-01, 4-[4-[[4-(5-Ethoxypyridin-3-yl)-3-methylphenyl]methyl]piperazin-1-yl]-N-methylsulfonylbenzamide]
